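Cultured in 96-well plates, cells were exposed to test compound for 48 hours across five concentrations. Here, GI50 denotes the concentration required for 50% inhibition of growth. Definition used: TGI = concentration required for complete inhibition of growth.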 Where a SMILES comes first, the peptide text is derived from it.
Columns and labels:
Assay in all cases: NCI anticancer screen, dose series, 48 h
[1] = system: COLO 205 colon
[2] = system: PC-3 prostate
[3] = system: MDA-MB-435
[4] = system: OVCAR-8 ovarian
[5] = system: HOP-92 NSCLC
[6] = system: NCI-H226 lung
[7] = system: BT-549 breast
[8] = system: KM12 colon
[9] = system: T-47D breast
[10] = system: MDA-MB-231 breast

Row | SMILES | TGI [1] [µM] | TGI [2] [µM] | TGI [3] [µM] | TGI [4] [µM] | TGI [5] [µM] | TGI [6] [µM] | TGI [7] [µM] | TGI [8] [µM] | TGI [9] [µM] | TGI [10] [µM] | GI50 [1] [µM] | GI50 [2] [µM] | GI50 [3] [µM] | GI50 [4] [µM] | GI50 [5] [µM] | GI50 [6] [µM] | GI50 [7] [µM] | GI50 [8] [µM] | GI50 [9] [µM] | GI50 [10] [µM]
1 | CCC(C)C(NC(=O)C1CCCN1C(=O)C(CC(C)C)NC(=O)C(CC(C)C)NC(=O)C(N)CC(C)C)C(=O)NC(C(=O)NCC(=O)NC(CC(N)=O)C(=O)NC(CC(C)C)C(=O)NC(CC(C)C)C(=O)NC(CC(C)C)C(N)=O)C(C)C (stereo not drawn) (H-LLLPIVGNLLL-NH2; configuration not given here) | > 50 | > 50 | > 50 | > 50 | > 50 | > 50 | > 50 | > 50 | > 50 | > 50 |  |  |  |  |  |  |  |  |  | 
2 | COC(=O)C1=C(O)CCCC(CCC(C)=O)=C1 | 55.2 | > 100 | > 100 | > 100 | 95.7 | > 100 | > 100 | > 100 | > 100 | > 100 |  |  |  |  |  |  |  |  |  | 
3 | CC(=O)c1ccc2c(c1)N(CCCN1CCN(CCO)CC1)c1ccccc1C2 | 31.8 | 27.8 | 21.7 | 30.7 | 27.4 | 30.9 | 28.1 | 31.1 | 25.9 | 26.7 |  |  |  |  |  |  |  |  |  | 
4 | C1=CC(=[N+]2N=C(c3ccccc3)CC2c2ccccc2)C=CC1=C1SC(c2ccccc2)(c2ccccc2)c2ccccc21 (stereo not drawn) |  | > 100 | > 100 | > 100 | > 100 | > 100 | > 100 | > 100 | > 100 | > 100 |  |  |  |  |  |  |  |  |  | 
5 | NC(=S)N1N=C(c2ccccc2O)CC1c1ccccc1 (stereo not drawn) | 26.5 | 22.8 | 20.2 | > 100 | 54.6 | 53.8 | 75 | 43.4 | 68.5 |  |  |  |  |  |  |  |  |  |  | 
6 | CCCCCOC(=O)c1cc2cc(CCl)ccc2oc1=O | 16.3 | 15.2 | 14.9 | > 63 | 7.35 | 38 | 40.6 | 31.2 | 13.6 | 37.5 |  |  |  |  |  |  |  |  |  | 
7 | COc1cc2c(cc1C)NC(=O)/C2=C/c1c(Cl)n(-c2ccccc2)c2ccccc12 | 18.5 | > 100 | 45.5 | > 100 | > 100 |  | 66.5 | > 100 | 40.4 | > 100 |  |  |  |  |  |  |  |  |  | 
8 | CCCN1C(=O)CSC1=Nc1ccc2cc3ccc(N=C4SCC(=O)N4CCC)cc3nc2c1 | > 100 | > 100 | > 100 | > 100 | 0.334 | > 100 | > 100 | > 100 | > 100 | > 100 | > 100 | 78.1 | > 100 | 50.7 | 0.0391 | 16.5 | 46.5 | 35.9 | 18.2 | 25.1
9 | COC(OC)C1OC(CO)C(n2cc(F)c(=O)[nH]c2=O)C1O (stereo not drawn) | 28.5 | > 100 | > 100 | > 100 | > 100 | > 100 | > 100 | > 100 | > 100 | > 100 |  |  |  |  |  |  |  |  |  | 
10 | Cc1cc(=O)[nH]c(/N=C(\N)Nc2ccc(Cl)cc2)n1 |  | > 100 | > 100 | > 100 | > 100 | > 100 | > 100 | > 100 | > 100 | > 100 |  |  |  |  |  |  |  |  |  | 
11 | CC(C)C1OC(=O)/C=C/C=C/C=C/C=C/C=C/CC(O)C(C)C(O)CC(O)CC(O)CC(O)CC(O)CC(O)CC(O)/C=C/C1C (stereo not drawn) |  | > 100 | > 100 | > 100 | > 100 |  |  | > 100 |  |  |  |  |  |  |  |  |  |  |  | 
12 | O=S(=O)(O)c1cc(N=[N+]([O-])c2cc(S(=O)(=O)O)c3ccccc3c2)cc2ccccc12 | > 100 | > 100 | > 100 | > 100 | > 100 | > 100 | 39 | > 100 | > 100 | > 100 |  |  |  |  |  |  |  |  |  | 
13 | O=[N+]([O-])c1ccc2c(c1)nc(Cc1ccc(Cl)cc1)n2C[C@@H]1CCCN2CCCCC12 (stereo partly drawn) | 29.2 | > 51.7 | 28.3 | 30.4 | 25.4 | 38.3 | 27.1 | 27.9 | 36.6 | 32.6 |  |  |  |  |  |  |  |  |  | 
14 | Cc1nc2ncn3c(c-2c1Cc1ccccc1)NC=C(O)N3 | > 100 | > 100 | > 100 | > 100 |  | > 100 | > 100 | > 100 | 61.3 | > 100 |  |  |  |  |  |  |  |  |  | 
15 | CC(=O)Oc1ccc(CO)cc1OC(C)=O | > 100 |  |  | > 100 | > 100 | > 100 |  | > 100 |  |  |  |  |  |  |  |  |  |  |  | 
16 | O=c1[nH]c(Nc2ccc(Cl)cc2)nc2nc[nH]c12 | > 100 | > 100 | > 100 | > 100 | > 100 | > 100 | > 100 | > 100 | > 100 | > 100 |  |  |  |  |  |  |  |  |  | 
17 | CSCCC(NC(=O)OCc1ccccc1)P(=O)(O)c1ccccc1 (stereo not drawn) | > 100 | > 100 | > 100 | > 100 | > 100 | > 100 |  |  | > 100 | > 100 |  |  |  |  |  |  |  |  |  | 

Source: PubChem BioAssay (NCI)
